Values after ≈ are worked out from the molar mass of the structure shown.
Columns and labels:
[1] = Clearance in rat at 1 mg/kg, iv; format: ADME, organism-based; conditions: in vivo
[2] = Half life in rat at 1 mg/kg, iv; format: ADME, organism-based; conditions: in vivo
[3] = Cmax in rat at 5 mg/kg, po; format: ADME, organism-based; parameters: dose 5 mg/kg, route oral; conditions: in vivo
[4] = AUC in rat at 5 mg/kg, po; format: ADME, organism-based; conditions: in vivo
[5] = Oral bioavailability in rat at 5 mg/kg; format: ADME, organism-based; conditions: in vivo
[6] = Tmax in rat at 5 mg/kg, po; format: ADME, organism-based; conditions: in vivo
[7] = molecular target: Cytochrome P450 3A4 (Homo sapiens, UniProt P08684); assay: Inhibition of CYP3A4 (unknown origin); format: ADME
Sequence of Cytochrome P450 3A4 (P08684 whole entry): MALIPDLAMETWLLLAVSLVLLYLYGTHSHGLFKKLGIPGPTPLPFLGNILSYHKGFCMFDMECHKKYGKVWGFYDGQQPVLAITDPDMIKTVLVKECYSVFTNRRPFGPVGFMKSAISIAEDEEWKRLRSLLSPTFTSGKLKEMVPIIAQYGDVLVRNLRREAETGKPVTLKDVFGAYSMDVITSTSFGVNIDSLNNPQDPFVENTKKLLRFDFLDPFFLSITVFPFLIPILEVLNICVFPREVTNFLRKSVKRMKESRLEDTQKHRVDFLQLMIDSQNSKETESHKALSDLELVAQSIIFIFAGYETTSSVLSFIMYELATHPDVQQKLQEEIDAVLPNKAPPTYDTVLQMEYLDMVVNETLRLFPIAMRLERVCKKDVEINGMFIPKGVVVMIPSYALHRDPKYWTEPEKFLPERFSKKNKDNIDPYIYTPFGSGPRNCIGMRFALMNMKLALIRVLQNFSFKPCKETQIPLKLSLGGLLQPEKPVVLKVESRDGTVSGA

[8] = molecular target: Voltage-gated inwardly rectifying potassium channel KCNH2 (Homo sapiens, UniProt Q12809); assay: Inhibition of human ERG by patch clamp assay
Sequence of Voltage-gated inwardly rectifying potassium channel KCNH2 (Q12809 whole entry): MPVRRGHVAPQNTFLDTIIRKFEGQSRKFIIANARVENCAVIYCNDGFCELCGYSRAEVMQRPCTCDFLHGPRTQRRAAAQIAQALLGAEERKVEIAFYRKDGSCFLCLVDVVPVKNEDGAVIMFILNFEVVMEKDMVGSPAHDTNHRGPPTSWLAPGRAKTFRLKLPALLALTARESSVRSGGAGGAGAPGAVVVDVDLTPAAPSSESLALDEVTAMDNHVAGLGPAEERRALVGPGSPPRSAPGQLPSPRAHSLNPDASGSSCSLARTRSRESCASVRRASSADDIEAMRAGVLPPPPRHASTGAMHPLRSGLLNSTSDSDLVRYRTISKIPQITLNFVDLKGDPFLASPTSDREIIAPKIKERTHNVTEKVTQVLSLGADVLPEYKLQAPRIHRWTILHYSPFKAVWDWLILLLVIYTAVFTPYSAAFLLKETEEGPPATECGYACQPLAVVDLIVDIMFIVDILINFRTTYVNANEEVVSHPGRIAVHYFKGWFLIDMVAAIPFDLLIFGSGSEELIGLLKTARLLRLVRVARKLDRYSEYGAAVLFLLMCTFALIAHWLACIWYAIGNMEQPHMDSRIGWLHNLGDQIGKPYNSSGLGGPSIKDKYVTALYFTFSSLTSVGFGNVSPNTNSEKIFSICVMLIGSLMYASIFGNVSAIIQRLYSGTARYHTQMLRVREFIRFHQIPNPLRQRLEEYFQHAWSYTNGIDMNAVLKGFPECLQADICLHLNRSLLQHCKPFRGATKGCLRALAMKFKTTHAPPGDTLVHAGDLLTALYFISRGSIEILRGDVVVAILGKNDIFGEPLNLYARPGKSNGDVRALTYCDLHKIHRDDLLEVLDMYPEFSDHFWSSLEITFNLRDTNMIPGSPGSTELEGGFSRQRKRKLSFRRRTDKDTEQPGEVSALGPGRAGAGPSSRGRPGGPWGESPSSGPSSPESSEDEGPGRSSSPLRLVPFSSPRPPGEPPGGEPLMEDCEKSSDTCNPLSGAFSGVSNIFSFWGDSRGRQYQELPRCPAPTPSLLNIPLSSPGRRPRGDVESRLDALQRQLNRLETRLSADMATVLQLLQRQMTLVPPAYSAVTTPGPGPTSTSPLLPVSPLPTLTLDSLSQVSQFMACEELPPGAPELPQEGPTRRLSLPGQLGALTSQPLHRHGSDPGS

[9] = molecular target: T1, Nuclear receptor subfamily 1 group I member 2 (Homo sapiens, UniProt O75469); assay: Transactivation of PXR (unknown origin); format: ADME
T1 sequence (O75469 whole entry): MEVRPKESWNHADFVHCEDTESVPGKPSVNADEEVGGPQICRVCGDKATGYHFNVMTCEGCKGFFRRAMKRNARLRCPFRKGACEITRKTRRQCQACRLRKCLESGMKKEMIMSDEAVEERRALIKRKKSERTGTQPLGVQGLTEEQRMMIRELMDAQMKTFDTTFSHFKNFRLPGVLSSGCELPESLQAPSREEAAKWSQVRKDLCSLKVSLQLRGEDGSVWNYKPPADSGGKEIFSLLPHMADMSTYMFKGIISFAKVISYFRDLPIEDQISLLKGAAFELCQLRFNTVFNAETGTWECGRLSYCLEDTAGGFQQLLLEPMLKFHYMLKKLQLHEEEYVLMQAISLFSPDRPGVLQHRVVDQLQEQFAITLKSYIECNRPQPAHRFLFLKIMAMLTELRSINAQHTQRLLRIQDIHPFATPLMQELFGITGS

[10] = molecular target: Voltage-dependent L-type calcium channel subunit alpha-1C (Homo sapiens, UniProt Q13936); assay: Inhibition of Cav1.2 (unknown origin)
Sequence of Voltage-dependent L-type calcium channel subunit alpha-1C (Q13936 whole entry): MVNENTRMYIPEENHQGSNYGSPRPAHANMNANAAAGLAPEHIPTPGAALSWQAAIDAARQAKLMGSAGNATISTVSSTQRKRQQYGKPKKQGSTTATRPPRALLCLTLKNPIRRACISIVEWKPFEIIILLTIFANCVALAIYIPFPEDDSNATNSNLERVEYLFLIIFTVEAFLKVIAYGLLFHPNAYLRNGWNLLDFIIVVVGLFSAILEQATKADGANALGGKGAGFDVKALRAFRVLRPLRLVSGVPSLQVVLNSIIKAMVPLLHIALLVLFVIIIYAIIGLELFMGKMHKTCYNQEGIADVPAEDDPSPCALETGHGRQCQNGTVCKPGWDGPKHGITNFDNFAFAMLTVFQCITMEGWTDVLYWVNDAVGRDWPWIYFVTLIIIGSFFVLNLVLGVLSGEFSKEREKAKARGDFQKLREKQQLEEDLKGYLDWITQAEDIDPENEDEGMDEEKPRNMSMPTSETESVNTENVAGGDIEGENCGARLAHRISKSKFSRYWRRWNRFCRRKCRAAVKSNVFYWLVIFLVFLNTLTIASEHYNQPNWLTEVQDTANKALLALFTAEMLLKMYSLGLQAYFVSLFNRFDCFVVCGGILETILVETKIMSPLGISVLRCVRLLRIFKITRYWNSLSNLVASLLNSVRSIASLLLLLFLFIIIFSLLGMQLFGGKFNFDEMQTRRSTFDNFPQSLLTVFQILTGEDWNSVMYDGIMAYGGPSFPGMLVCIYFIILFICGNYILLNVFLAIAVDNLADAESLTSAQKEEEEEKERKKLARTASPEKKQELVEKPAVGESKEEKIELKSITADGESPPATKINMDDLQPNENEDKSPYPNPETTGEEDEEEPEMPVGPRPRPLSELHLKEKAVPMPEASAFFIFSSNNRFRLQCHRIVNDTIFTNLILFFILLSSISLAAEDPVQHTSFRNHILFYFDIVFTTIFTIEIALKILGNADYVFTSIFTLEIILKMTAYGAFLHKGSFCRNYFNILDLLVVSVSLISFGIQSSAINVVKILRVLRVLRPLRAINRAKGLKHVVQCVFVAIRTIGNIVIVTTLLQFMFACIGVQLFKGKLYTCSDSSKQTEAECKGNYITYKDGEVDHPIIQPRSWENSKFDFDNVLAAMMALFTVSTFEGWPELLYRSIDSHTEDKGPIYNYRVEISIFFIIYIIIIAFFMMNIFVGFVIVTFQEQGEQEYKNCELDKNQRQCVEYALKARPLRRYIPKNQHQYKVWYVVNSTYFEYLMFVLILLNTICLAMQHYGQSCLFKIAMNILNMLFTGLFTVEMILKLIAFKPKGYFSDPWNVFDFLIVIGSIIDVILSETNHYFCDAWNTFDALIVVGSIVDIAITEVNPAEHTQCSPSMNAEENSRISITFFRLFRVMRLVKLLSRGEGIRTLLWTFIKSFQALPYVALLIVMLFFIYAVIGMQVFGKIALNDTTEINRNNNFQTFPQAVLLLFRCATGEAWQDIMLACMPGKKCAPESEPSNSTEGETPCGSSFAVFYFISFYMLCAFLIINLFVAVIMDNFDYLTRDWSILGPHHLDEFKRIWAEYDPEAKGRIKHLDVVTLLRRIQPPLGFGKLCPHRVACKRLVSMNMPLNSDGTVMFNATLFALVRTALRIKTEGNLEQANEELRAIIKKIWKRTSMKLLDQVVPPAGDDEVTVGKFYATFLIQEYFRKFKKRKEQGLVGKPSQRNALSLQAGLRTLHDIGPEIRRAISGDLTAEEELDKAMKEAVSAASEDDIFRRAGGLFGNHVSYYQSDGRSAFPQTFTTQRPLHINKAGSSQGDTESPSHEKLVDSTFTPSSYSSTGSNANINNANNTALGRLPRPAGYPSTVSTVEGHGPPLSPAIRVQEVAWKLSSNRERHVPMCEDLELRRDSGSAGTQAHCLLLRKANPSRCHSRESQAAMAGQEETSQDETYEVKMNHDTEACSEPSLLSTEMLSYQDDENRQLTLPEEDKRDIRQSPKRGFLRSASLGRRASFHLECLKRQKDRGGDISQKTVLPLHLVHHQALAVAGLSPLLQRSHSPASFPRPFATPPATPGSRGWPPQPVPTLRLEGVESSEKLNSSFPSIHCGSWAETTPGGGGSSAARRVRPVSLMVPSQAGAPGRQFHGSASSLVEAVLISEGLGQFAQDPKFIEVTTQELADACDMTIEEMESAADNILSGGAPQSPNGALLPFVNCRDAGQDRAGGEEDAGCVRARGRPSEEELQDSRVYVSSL

[11] = molecular target: Sodium channel protein type 5 subunit alpha (Homo sapiens, UniProt Q14524); assay: Inhibition of Nav1.5 (unknown origin)
[12] = Solubility of the compound in FaSSIF using crystalline sample; format: physicochemical
[13] = Apparent permeability in dog MDCK cells; format: ADME, cell-based, Canis lupus familiaris
[14] = Drug concentration in rat plasma at 5 mg/kg, po after 24 hrs; format: ADME, organism-based
[15] = Clearance in dog at 0.5 mg/kg, iv; format: ADME, organism-based, Canis lupus familiaris; conditions: in vivo
[16] = Half life in dog at 0.5 mg/kg, iv; format: ADME, organism-based, Canis lupus familiaris; conditions: in vivo
[17] = Cmax in dog at 2 mg/kg, po; format: ADME, organism-based, Canis lupus familiaris; parameters: dose 2 mg/kg, route oral; conditions: in vivo
[18] = AUC in dog at 2 mg/kg, po; format: ADME, organism-based, Canis lupus familiaris; conditions: in vivo
[19] = Oral bioavailability in dog at 2 mg/kg; format: ADME, organism-based, Canis lupus familiaris; conditions: in vivo
[20] = Drug concentration in dog plasma at 2 mg/kg, po after 24 hrs; format: ADME, organism-based, Canis lupus familiaris
[21] = Clearance in monkey at 1 mg/kg, iv; format: ADME, organism-based, Macaca mulatta; conditions: rhesus monkey, in vivo
[22] = Half life in monkey at 1 mg/kg, iv; format: ADME, organism-based, Macaca mulatta; conditions: rhesus monkey, in vivo
[23] = Cmax in monkey at 3 mg/kg, po; format: ADME, organism-based, Macaca mulatta; parameters: dose 3 mg/kg, route oral; conditions: rhesus monkey, in vivo
[24] = AUC in monkey at 3 mg/kg, po; format: ADME, organism-based, Macaca mulatta; conditions: rhesus monkey, in vivo
[25] = Oral bioavailability in monkey at 3 mg/kg; format: ADME, organism-based, Macaca mulatta; conditions: rhesus monkey, in vivo
[26] = Drug concentration in monkey plasma at 3 mg/kg, po after 24 hrs; format: ADME, organism-based, Macaca mulatta; conditions: rhesus monkey
[27] = AUC in rat at 10 mg/kg, po using spray dry sample; format: ADME, organism-based; conditions: in vivo
[28] = AUC in rat at 100 mg/kg, po using spray dry sample; format: ADME, organism-based; conditions: in vivo
[29] = AUC in rat at 650 mg/kg, po using spray dry sample; format: ADME, organism-based; conditions: in vivo
[30] = Cmax in rat at 10 mg/kg, po using spray dry sample; format: ADME, organism-based; parameters: dose 10 mg/kg, route oral; conditions: in vivo
[31] = Cmax in rat at 100 mg/kg, po using spray dry sample; format: ADME, organism-based; parameters: dose 100 mg/kg, route oral; conditions: in vivo
[32] = Cmax in rat at 650 mg/kg, po using spray dry sample; format: ADME, organism-based; parameters: dose 650 mg/kg, route oral; conditions: in vivo
[33] = AUC in rat at 100 mg/kg, po using conventional sample; format: ADME, organism-based; conditions: in vivo
[34] = AUC in rat at 300 mg/kg, po using spray dry sample; format: ADME, organism-based; conditions: in vivo
[35] = Cmax in rat at 300 mg/kg, po using spray dry sample; format: ADME, organism-based; parameters: dose 300 mg/kg, route oral; conditions: in vivo
[36] = Drug metabolism in solvent assessed as oxidation by measuring cpd 1 formation under air exposure

SMILES	clearance [1] [mL/min/kg]	half-life [2] [h]	Cmax [3] [nM]	AUC [4] [µM·h]	bioavailability [5] [%]	IC50 [7] [µM]	EC50 [9] [µM]	Papp [13] [×10⁻⁶ cm/s]	concentration at 24 h [14] [nM]	clearance [15] [mL/min/kg]	half-life [16] [h]	Cmax [17] [nM]	AUC [18] [µM·h]	bioavailability [19] [%]	concentration at 24 h [20] [nM]	clearance [21] [mL/min/kg]	half-life [22] [h]	IC50 [8] [µM]	IC50 [10] [µM]	IC50 [11] [µM]	further results
CNC(=O)c1c(-c2ccc(F)cc2)oc2cc(N(C)S(C)(=O)=O)c(-c3cc4n(c(=O)c3)CCn3c-4cc4c(F)cccc43)cc12	17	4.3	190	0.078	1																Tmax [6]: 1 h
CNC(=O)c1c(-c2ccc(F)cc2)oc2cc(N(C)S(C)(=O)=O)c(-c3ccc4ncn5c6cccc(F)c6cc5c4n3)cc12	8.5	8.4	580	5.2	36	> 50	> 30	10.2	110	3.2	17	840	9.4	64	130	4.7	6.1	> 30	22	> 30	solubility thermodynamic [12]: 1.02 µg/mL (≈ 1.67 µM); Cmax [23]: 660 nM; AUC [24]: 3.4 µM·h; bioavailability [25]: 20%; concentration at 24 h [26]: 10 nM; AUC [33]: 0.67 µM·h; AUC [27]: 32 µM·h; AUC [28]: 136 µM·h; AUC [34]: 181 µM·h; Cmax [30]: 2700 nM; Cmax [31]: 8500 nM; Cmax [35]: 5600 nM
CNC(=O)c1c(-c2ccc(F)cc2)oc2cc(N(C)S(C)(=O)=O)c(-c3ccc4c(n3)-c3cc5c(F)cccc5n3CN4)cc12	16	3.8	350	1.4	16	> 50	> 30	8.9	2.2	7.9	4	410	2.3	30	11	7.7	3.9	> 30	> 30	> 30	Cmax [23]: 130 nM; AUC [24]: 1 µM·h; bioavailability [25]: 9.3%; concentration at 24 h [26]: 4 nM; Drug metabolism [36]: Metabolite detected
CNC(=O)c1c(-c2ccc(F)cc2)oc2cc(N(C)S(C)(=O)=O)c(-c3ccc4ccn5c6cccc(F)c6cc5c4n3)cc12	4.2	16	450	7.9	26	> 50	> 30	< 1.9	114	2.6	22	1000	6.3	43	140	5.6	6.6	> 30	18	> 30	solubility thermodynamic [12]: 2.9 µg/mL (≈ 4.75 µM); Cmax [23]: 370 nM; AUC [24]: 3.5 µM·h; bioavailability [25]: 24%; concentration at 24 h [26]: 31 nM

Continued, in another order:

clearance [1] [mL/min/kg]	half-life [2] [h]	Cmax [3] [nM]	AUC [4] [µM·h]	bioavailability [5] [%]	IC50 [7] [µM]	EC50 [9] [µM]	Papp [13] [×10⁻⁶ cm/s]	concentration at 24 h [14] [nM]	clearance [15] [mL/min/kg]	half-life [16] [h]	Cmax [17] [nM]	AUC [18] [µM·h]	bioavailability [19] [%]	concentration at 24 h [20] [nM]	clearance [21] [mL/min/kg]	half-life [22] [h]	SMILES	IC50 [8] [µM]	IC50 [10] [µM]	IC50 [11] [µM]	further results
2.3	12	950	8.8	18	> 50	> 30	14.2	69	2.9	13	1300	9.2	54	76	11	5.9	CNC(=O)c1c(-c2ccc(F)cc2)oc2cc(N(C)S(C)(=O)=O)c(-c3ccc4c(n3)-c3cc5c(F)cccc5n3CC4)cc12	> 30	18	> 30	solubility thermodynamic [12]: 4.7 µg/mL (≈ 7.67 µM); Cmax [23]: 320 nM; AUC [24]: 1.7 µM·h; bioavailability [25]: 22%; concentration at 24 h [26]: 6.3 nM; AUC [27]: 37 µM·h; AUC [28]: 100 µM·h; AUC [29]: 181 µM·h; Cmax [30]: 4300 nM; Cmax [31]: 8200 nM; Cmax [32]: 11000 nM; Tmax [6]: 4 h
5.2	9.6	120	1.1	4				10									CNC(=O)c1c(-c2ccc(F)cc2)oc2cc(N(C)S(C)(=O)=O)c(-c3ccc4c(n3)-c3cc5c(F)cccc5n3C4)cc12				Tmax [6]: 3 h
							7.9										CNC(=O)c1c(-c2ccc(F)cc2)oc2cc(N(C)S(C)(=O)=O)c(-c3ccc4c(n3)-c3cc5c(F)cccc5n3CO4)cc12 [MK-8876]				AUC [27]: 16 µM·h; AUC [28]: 83 µM·h; AUC [29]: 226 µM·h; Cmax [30]: 1500 nM; Cmax [31]: 6700 nM; Cmax [32]: 12000 nM
